Measurements taken from ChEMBL document CHEMBL3046330, “Synthesis and biological activity of hydrazidehydrazones and their corresponding 3-acetyl-2,5-disubstituted-2,3-dihydro-1,3,4-oxadiazoles” (Med Chem Res, 2012).
≈ marks a conversion by molar mass, not a printed value. Calls of active or inactive are those of the source. The rule behind the calls is not given here.

Tests used:
[1] = target: T1, Nitric oxide synthase, inducible (Mus musculus) (UniProt P29477); test: Inhibition of iNOS in Mus musculus (mouse) RAW264.7 cells assessed as inhibition of LPS-induced nitrite production up to 25 ug/ml incubated for 30 min prior to LPS challenge measured after 24 hr by Griess assay relative to vehicle-treated control; format: cell-based
T1 sequence (whole entry): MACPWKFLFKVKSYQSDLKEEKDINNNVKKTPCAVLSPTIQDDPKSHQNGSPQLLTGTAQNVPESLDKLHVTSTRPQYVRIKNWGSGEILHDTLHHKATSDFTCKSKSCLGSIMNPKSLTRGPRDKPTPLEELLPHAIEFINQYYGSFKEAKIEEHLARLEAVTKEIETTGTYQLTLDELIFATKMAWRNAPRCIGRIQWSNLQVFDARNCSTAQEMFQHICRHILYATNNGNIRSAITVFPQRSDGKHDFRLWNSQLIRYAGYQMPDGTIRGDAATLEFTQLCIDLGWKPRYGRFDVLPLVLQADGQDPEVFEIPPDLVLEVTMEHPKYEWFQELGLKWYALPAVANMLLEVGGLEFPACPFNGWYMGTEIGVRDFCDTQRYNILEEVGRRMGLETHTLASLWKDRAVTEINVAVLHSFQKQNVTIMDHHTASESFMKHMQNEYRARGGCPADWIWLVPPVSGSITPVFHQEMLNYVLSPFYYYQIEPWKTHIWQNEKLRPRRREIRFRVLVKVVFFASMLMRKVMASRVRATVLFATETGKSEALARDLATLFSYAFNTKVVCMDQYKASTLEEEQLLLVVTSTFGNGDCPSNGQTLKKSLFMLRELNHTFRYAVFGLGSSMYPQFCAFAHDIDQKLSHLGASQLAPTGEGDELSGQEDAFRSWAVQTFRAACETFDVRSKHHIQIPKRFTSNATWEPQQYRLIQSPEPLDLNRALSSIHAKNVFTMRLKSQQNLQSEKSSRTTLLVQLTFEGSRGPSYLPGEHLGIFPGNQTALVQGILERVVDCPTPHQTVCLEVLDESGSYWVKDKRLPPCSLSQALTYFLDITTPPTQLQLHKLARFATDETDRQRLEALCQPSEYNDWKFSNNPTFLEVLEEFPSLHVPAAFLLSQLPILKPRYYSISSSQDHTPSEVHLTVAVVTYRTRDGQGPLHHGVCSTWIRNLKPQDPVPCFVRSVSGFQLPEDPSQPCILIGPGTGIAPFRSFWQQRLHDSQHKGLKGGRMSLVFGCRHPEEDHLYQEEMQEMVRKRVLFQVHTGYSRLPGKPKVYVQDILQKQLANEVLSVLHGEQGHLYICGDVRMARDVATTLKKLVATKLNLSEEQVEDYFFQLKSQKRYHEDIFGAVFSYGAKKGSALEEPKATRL

[2] = system: RAW264.7; test: Cytotoxicity against Mus musculus (mouse) RAW264.7 cells up to 25 ug/ml; format: cell-based
[3] = system: HL-60; test: Antioxidant activity in PMA-stimulated Homo sapiens (human) HL60 cells assessed as inhibition of intracellular ROS generation up to 25 ug/ml incubated for 30 min prior to PMA stimulation measured after 30 min by DCFH-DA assay relative to vehicle-treated control; format: functional, cell-based
[4] = system: HL-60; test: Cytotoxicity against Homo sapiens (human) HL60 cells up to 25 ug/ml; format: cell-based
[5] = system: Vero; test: Cytotoxicity against Chlorocebus aethiops (African green monkey) Vero cells assessed as cell viability up to 25 ug/ml after 48 hr by neutral red assay; format: cell-based; conditions: chlorocebus sabaeus
[6] = Cytotoxicity against Sus scrofa (pig) LLC-PK11 cells assessed as cell viability up to 25 ug/ml after 48 hr by neutral red assay; format: cell-based; conditions: llc-pk11, 48 h
[7] = system: SK-MEL; test: Cytotoxicity against Homo sapiens (human) SK-MEL cells assessed as cell viability up to 25 ug/ml after 48 hr by neutral red assay; format: functional, cell-based
[8] = system: KB; test: Cytotoxicity against Homo sapiens (human) KB cells assessed as cell viability up to 25 ug/ml after 48 hr by neutral red assay; format: functional, cell-based
[9] = system: BT-549; test: Cytotoxicity against Homo sapiens (human) BT549 cells assessed as cell viability up to 25 ug/ml after 48 hr by neutral red assay; format: functional, cell-based
[10] = system: Candida albicans; test: Antifungal activity against Candida albicans NRRL Y-12983 after 24 hr by NCCLS broth microdilution method; format: functional; conditions: NRRL Y-12983, 24 h
[11] = system: Nakaseomyces glabratus; test: Antifungal activity against Candida glabrata clinical isolate after 24 hr by NCCLS broth microdilution method; format: functional
[12] = system: Candida parapsilosis; test: Antifungal activity against Candida parapsilosis NRRL Y-12696 after 24 hr by NCCLS broth microdilution method; format: functional; conditions: Lodderomyces parapsilosis, NRRL Y-12696, 24 h
[13] = system: Pichia kudriavzevii; test: Antifungal activity against Pichia kudriavzevii NRRL Y-7179 after 24 hr by NCCLS broth microdilution method; format: functional; conditions: NRRL Y-7179, 24 h
[14] = system: Cyberlindnera jadinii; test: Antifungal activity against Cyberlindnera jadinii NRRL Y-900 after 24 hr by NCCLS broth microdilution method; format: functional; conditions: Williopsis jadinii, NRRL Y-900, 24 h
[15] = system: Candida albicans; test: Antifungal activity against Candida albicans ATCC 90028 after 24 hr by NCCLS broth microdilution method; format: functional; conditions: ATCC 90028, 24 h
[16] = system: Candida tropicalis; test: Antifungal activity against Candida tropicalis NRRL Y-12968 at 2000 ug/ml by agar diffusion method; format: functional; conditions: read-out: IZ
[17] = system: Candida albicans; test: Antifungal activity against Candida albicans clinical isolate at 2000 ug/ml by agar diffusion method; format: functional; conditions: read-out: IZ
[18] = Inhibition of PMA-induced NFkappaB activity in Homo sapiens (human) SW1353 cells incubated for 30 min followed by PMA induction for 8 hr by luciferase reporter gene assay; format: cell-based
[19] = system: SK-OV-3; test: Cytotoxicity against Homo sapiens (human) SKOV3 cells assessed as cell viability up to 25 ug/ml after 48 hr by neutral red assay; format: functional, cell-based
[20] = system: HL-60; test: Antioxidant activity in PMA-stimulated Homo sapiens (human) HL60 cells assessed as inhibition of intracellular ROS generation incubated for 30 min prior to PMA stimulation measured after 30 min by DCFH-DA assay; format: functional, cell-based
[21] = system: HL-60; test: Cytotoxicity against Homo sapiens (human) HL60 cells; format: cell-based
[22] = system: Candida tropicalis; test: Antifungal activity against Candida tropicalis NRRL Y-12968 after 24 hr by NCCLS broth microdilution method; format: functional; conditions: NRRL Y-12968, 24 h
[23] = system: Candida albicans; test: Antifungal activity against Candida albicans clinical isolate after 24 hr by NCCLS broth microdilution method; format: functional
[24] = target: Transcription factor Sp1 (Homo sapiens, UniProt P08047); test: Inhibition of Sp1 (unknown origin) up to 25 ug/ml by luciferase reporter gene assay
[25] = system: SW1353; test: Inhibition of PMA-induced NFkappaB activity in Homo sapiens (human) SW1353 cells up to 25 ug/ml incubated for 30 min followed by PMA induction for 8 hr by luciferase reporter gene assay; format: cell-based
[26] = target: T2, Nitric oxide synthase, inducible (Mus musculus, UniProt P29477); test: Inhibition of iNOS in Mus musculus (mouse) RAW264.7 cells assessed as inhibition of LPS-induced nitrite production incubated for 30 min prior to LPS challenge measured after 24 hr by Griess assay; format: cell-based
T2 sequence (P29477 whole entry): T1 sequence (whole entry)

Chain of Transcription factor Sp1 (P08047 whole entry): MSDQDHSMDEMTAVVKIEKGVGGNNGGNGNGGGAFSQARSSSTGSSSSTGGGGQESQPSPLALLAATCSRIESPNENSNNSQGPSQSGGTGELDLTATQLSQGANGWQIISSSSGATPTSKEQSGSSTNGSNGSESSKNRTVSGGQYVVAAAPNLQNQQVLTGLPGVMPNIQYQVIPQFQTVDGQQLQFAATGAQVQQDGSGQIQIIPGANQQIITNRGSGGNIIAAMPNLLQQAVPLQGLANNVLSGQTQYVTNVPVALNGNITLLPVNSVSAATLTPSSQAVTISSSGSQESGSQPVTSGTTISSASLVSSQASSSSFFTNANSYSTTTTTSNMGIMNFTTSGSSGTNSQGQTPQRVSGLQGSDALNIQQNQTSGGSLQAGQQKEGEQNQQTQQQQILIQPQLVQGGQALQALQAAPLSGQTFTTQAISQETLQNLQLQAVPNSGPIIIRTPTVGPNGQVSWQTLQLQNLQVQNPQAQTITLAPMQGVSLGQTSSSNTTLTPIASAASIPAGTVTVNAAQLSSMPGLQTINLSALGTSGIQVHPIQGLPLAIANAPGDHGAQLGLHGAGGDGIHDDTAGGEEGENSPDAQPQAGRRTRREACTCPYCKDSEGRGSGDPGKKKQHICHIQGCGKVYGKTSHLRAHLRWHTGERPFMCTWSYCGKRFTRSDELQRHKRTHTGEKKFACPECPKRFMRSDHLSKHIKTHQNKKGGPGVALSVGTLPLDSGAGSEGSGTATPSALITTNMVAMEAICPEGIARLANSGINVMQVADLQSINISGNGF

MIC [10] [µg/mL] | MIC [11] [µg/mL] | MIC [12] [µg/mL] | MIC [13] [µg/mL] | MIC [14] [µg/mL] | MIC [15] [µg/mL] | IC50 [20] [µg/mL] | MIC [22] [µg/mL] | inhibition (INH) [24] | SMILES | Activity [2] | Activity [4] | Activity [5] | Activity [6] | Activity [7] | Activity [8] | Activity [9] | zone of inhibition at 2000 µg/mL [16] [mm] | zone of inhibition at 2000 µg/mL [17] [mm] | Activity [19] | inhibition [25] | also measured
500 (≈ 2060 µM) | 250 (≈ 1030 µM) | 250 (≈ 1030 µM) | 500 (≈ 2060 µM) | 500 (≈ 2060 µM) | 500 (≈ 2060 µM) |  |  |  | O=C(N/N=C/c1ccccc1)c1ccc(F)cc1 | Non-toxic | Non-toxic | Not Active | Not Active | inactive | inactive | inactive | 9 | 9 | inactive |  | inhibition [1]: inactive; inhibition [3]: inactive; IC50 [18]: 2.8 µg/mL (≈ 11.6 µM)
500 (≈ 2150 µM) | 250 (≈ 1080 µM) | 500 (≈ 2150 µM) | 500 (≈ 2150 µM) | 500 (≈ 2150 µM) | 500 (≈ 2150 µM) | 0.7 (≈ 3.01 µM) | 500 (≈ 2150 µM) | Not Active | O=C(N/N=C/c1ccco1)c1ccc(F)cc1 | Non-toxic |  | Not Active | Not Active | inactive | inactive | inactive | 9 | 9 | inactive | inactive | IC50 [21]: 27 µg/mL (≈ 116 µM); MIC [23]: 250 µg/mL (≈ 1080 µM); IC50 [26]: > 108 µM
 |  |  |  |  |  | 0.3 (≈ 1.2 µM) |  |  | Cc1c(C)c2c(c(C)c1O)CCC(C)(C(=O)O)O2 (stereo not drawn) [TROLOX] |  |  |  |  |  |  |  |  |  |  |  | 
500 (≈ 1730 µM) | 250 (≈ 867 µM) | 500 (≈ 1730 µM) | 500 (≈ 1730 µM) | 500 (≈ 1730 µM) | 500 (≈ 1730 µM) | 0.9 (≈ 3.12 µM) | 250 (≈ 867 µM) | Not Active | COc1ccc(/C=N/NC(=O)c2ccc(F)cc2)cc1O | Non-toxic | Non-toxic | Not Active | Not Active | inactive | inactive | inactive | 9 | 9 | inactive | inactive | IC50 [26]: 76.3 µM
